The source made the active and inactive calls. No cut-off for these calls is given here.
How the values were obtained:
HT-29 [1] = assay: Anti-necroptic activity against human HT-29 cells assessed as cell viability pretreated with compound followed by TNF-alpha/Smac mimetic/Z-VAD-FMK stimulation for 16 hrs by Cell Titer Glo assay; format: functional, cell-based
[2] = Cytotoxicity against human HT-29 cells by Cell Titer Glo assay; format: toxicity, cell-based
Mus musculus [3] = assay: (§1) Anti-necroptic activity in TNF-alpha/Z-VAD-FMK-induced SIRS C57BL/6J mouse model assessed as survival rate at 2.5 mg/kg, po pre-administered via gavage for 1 hr followed by […] of Z-VAD-FMK stimulation for 15 mins and subsequent TNF-alpha stimulation for 45 mins and re-current […] of Z-VAD-FMK stimulation and measured after 60 hrs relative to control; format: functional; settings: 62 h, time 3720 min
L-292 = assay: Anti-necroptic activity against mouse […] cells assessed as cell viability pretreated with compound followed by TNF-alpha/Z-VAD-FMK stimulation for 12 hrs by Cell Titer Glo assay; format: functional, cell-based; settings: dose 0.078-10 µM
Mus musculus [4] = assay: as §1, with “stimulation” for “stimulation and”, “4” for “60”, “hrs post- TNF-alpha stimulation” for “hrs”; format: functional; settings: 6 h, time 360 min
Mus musculus [5] = assay: as §1, with “5” for “2.5”, “stimulation” for “stimulation and”, “4” for “60”, “hrs post- TNF-alpha stimulation” for “hrs”; format: functional; settings: 6 h, time 360 min
[6] = target: T1, Receptor-interacting serine/threonine-protein kinase 1 (Homo sapiens) (UniProt Q13546); assay: Inhibition of RIPK1 phosphorylation in human HT-29 cells preincubated for 6 hrs followed by TSZ stimulation by Western blot analysis; format: cell-based; settings: dose 1-10 nM
T1 sequence (whole entry): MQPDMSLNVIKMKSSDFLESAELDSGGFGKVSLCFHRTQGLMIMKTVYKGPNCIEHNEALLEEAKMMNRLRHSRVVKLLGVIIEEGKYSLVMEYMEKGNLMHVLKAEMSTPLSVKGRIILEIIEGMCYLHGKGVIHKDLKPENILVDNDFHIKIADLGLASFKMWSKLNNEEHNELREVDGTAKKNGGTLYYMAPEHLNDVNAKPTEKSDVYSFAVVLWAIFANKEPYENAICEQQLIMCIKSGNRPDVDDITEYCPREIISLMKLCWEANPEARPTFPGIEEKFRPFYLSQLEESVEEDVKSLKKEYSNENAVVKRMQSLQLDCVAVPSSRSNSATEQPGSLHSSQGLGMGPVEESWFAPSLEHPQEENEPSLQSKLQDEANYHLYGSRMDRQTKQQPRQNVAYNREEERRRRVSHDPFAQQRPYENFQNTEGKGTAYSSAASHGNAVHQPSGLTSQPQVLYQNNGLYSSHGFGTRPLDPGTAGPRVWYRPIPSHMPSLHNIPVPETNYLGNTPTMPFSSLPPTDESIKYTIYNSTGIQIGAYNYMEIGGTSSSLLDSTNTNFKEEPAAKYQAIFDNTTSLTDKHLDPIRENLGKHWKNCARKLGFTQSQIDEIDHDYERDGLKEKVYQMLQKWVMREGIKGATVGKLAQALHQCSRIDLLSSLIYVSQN

[7] = target: T1, Receptor-interacting serine/threonine-protein kinase 1 (Homo sapiens); assay: Inhibition of RIPK1 in human HT-29 cells assessed as decrease in MLKL phosphorylation preincubated for 6 hrs followed by TSZ stimulation by Western blot analysis relative to control; format: cell-based; settings: dose 1-10 nM
HT-29 [8] = assay: Anti-necroptic activity against human HT-29 cells assessed as cell viability upto 10 uM pretreated with compound followed by TNF-alpha/Smac mimetic stimulation for 24 hrs by Cell Titer Glo assay; format: functional, cell-based
Mus musculus [9] = assay: as §1, with “decrease in serum IL-6 level” for “survival rate”, “2.5 to 10” for “2.5”, “stimulation” for “stimulation and”, “4” for “60”, “post- TNF-alpha stimulation by ELISA” for “relative to control”; format: functional, organism-based; settings: dose 2.5-10 mg/kg, time 360.0 min
HT-29 [10] = assay: Anti-necroptic activity against human HT-29 cells assessed as cell viability pretreated with compound followed by TNF-alpha/Smac mimetic/Z-VAD-FMK stimulation for 12 hrs by Cell Titer Glo assay; format: functional, cell-based; settings: dose 0.39-50 nM
[11] = target: T1, Receptor-interacting serine/threonine-protein kinase 1 (Homo sapiens); assay: Inhibition of RIPK1 phosphorylation in human HT-29 cells assessed as decrease in necrosomes development at 10 nM incubated for 6 hrs by Western blot analysis; format: cell-based
[12] = target: T1, Receptor-interacting serine/threonine-protein kinase 1 (Homo sapiens); assay: Inhibition of RIPK1 phosphorylation in human HT-29 cells at 10 nM preincubated for 6 hrs followed by TSZ stimulation by Western blot analysis relative to control; format: cell-based
HT-29 [13] = assay: Anti-necroptic activity against human HT-29 cells assessed as cell viability pretreated with compound followed by TNF-alpha/Cycloheximide/Z-VAD-FMK stimulation for 16 hrs by Cell Titer Glo assay; format: functional, cell-based; settings: dose 0.39-50 nM
Mus musculus [14] = assay: as §1, with “10” for “2.5”, “stimulation” for “stimulation and”, “4” for “60”, “hrs post- TNF-alpha stimulation” for “hrs”; format: functional; settings: 6 h, time 360 min
Mus musculus [15] = assay: as §1, with “decrease in serum IL-1beta level” for “survival rate”, “2.5 to 10” for “2.5”, “stimulation” for “stimulation and”, “4” for “60”, “post- TNF-alpha stimulation by ELISA” for “relative to control”; format: functional, organism-based; settings: dose 2.5-10 mg/kg, time 360.0 min
HT-29 [16] = assay: Anti-necroptic activity against human HT-29 cells assessed as cell viability upto 10 uM pretreated with compound followed by TNF-alpha/Cycloheximide stimulation for 36 hrs by Cell Titer Glo assay; format: functional, cell-based
[17] = target: T1, Receptor-interacting serine/threonine-protein kinase 1 (Homo sapiens); assay: Inhibition of RIPK1 in human HT-29 cells assessed as decrease in RIPK3 phosphorylation at 10 nM preincubated for 6 hrs followed by TSZ stimulation by Western blot analysis relative to control; format: cell-based
[18] = target: T1, Receptor-interacting serine/threonine-protein kinase 1 (Homo sapiens); assay: Inhibition of RIPK1 in human HT-29 cells assessed as decrease in MLKL phosphorylation at 10 nM preincubated for 6 hrs followed by TSZ stimulation by Western blot analysis relative to control; format: cell-based
Mus musculus [19] = assay: as §1, with “decrease in hypothermia” for “survival rate”, “2.5 to 10” for “2.5”, “stimulation” for “stimulation and”, “2 to 3” for “60”, “post- TNF-alpha stimulation” for “relative to control”; format: functional, organism-based; settings: dose 2.5-10 mg/kg, time 240-300 min
[20] = target: T1, Receptor-interacting serine/threonine-protein kinase 1 (Homo sapiens); assay: Inhibition of RIPK1 in human HT-29 cells assessed as decrease in RIPK3 phosphorylation preincubated for 6 hrs followed by TSZ stimulation by Western blot analysis; format: cell-based; settings: dose 1-10 nM

| SMILES | EC50 (HT-29 [1]) [µM] | CC50 [2] [µM] | further results |
| --- | --- | --- | --- |
| CN1C(=O)[C@@H](NC(=O)c2n[nH]c(Cc3ccccc3)n2)COc2ccc(-c3cccc(F)c3)cc21 | 0.0088 | > 100 |  |
| CN1C(=O)[C@@H](NC(=O)c2n[nH]c(Cc3ccccc3)n2)COc2ccc(-c3ccccc3C#N)cc21 | 0.003 | > 100 |  |
| CN1C(=O)[C@@H](NC(=O)c2nnc(Cc3ccccc3)[nH]2)COc2ccccc21 [GSK2982772] | 0.0029 | > 100 | survival at 2.5 mg/kg (Mus musculus [3]): 50% |
| CN1C(=O)[C@@H](NC(=O)c2n[nH]c(Cc3ccccc3)n2)COc2ccc(-c3cccc(Cl)c3)cc21 | 0.0568 | > 100 |  |
| COc1ccc(-c2ccc3c(c2)N(C)C(=O)[C@@H](NC(=O)c2n[nH]c(Cc4ccccc4)n2)CO3)cc1 | 0.0035 | > 100 |  |
| COc1ccccc1-c1ccc2c(c1)N(C)C(=O)[C@@H](NC(=O)c1n[nH]c(Cc3ccccc3)n1)CO2 | 0.01 | > 100 |  |
| CN1C(=O)[C@@H](NC(=O)c2n[nH]c(Cc3ccccc3)n2)COc2ccc(-c3cccc(O)c3)cc21 | 0.0117 | > 100 |  |
| CN1C(=O)[C@@H](NC(=O)c2n[nH]c(Cc3ccccc3)n2)COc2ccc(-c3ccccc3F)cc21 | 0.0076 | > 100 |  |
| CN1C(=O)[C@@H](NC(=O)c2n[nH]c(Cc3ccccc3)n2)COc2ccc(-c3cncnc3)cc21 | 0.0058 | > 100 |  |
| CN1C(=O)[C@@H](NC(=O)c2n[nH]c(Cc3ccccc3)n2)COc2ccc(-c3ccc(-c4ccccc4)cc3)cc21 | 0.0329 | > 100 |  |
| CN1C(=O)[C@@H](NC(=O)c2n[nH]c(Cc3ccccc3)n2)COc2ccc(-c3ccc(F)cc3)cc21 | 0.0098 | > 100 |  |
| CN1C(=O)[C@@H](NC(=O)c2n[nH]c(Cc3ccccc3)n2)COc2ccc(-c3cccc(C#N)c3)cc21 | 0.0083 | > 100 |  |
| CN1C(=O)[C@@H](NC(=O)c2n[nH]c(Cc3ccccc3)n2)COc2ccc(-c3ccoc3)cc21 | 0.0034 | > 100 |  |
| CN1C(=O)[C@@H](NC(=O)c2n[nH]c(Cc3ccccc3)n2)COc2ccc(-c3ccccc3Cl)cc21 | 0.0203 | > 100 |  |
| CN1C(=O)[C@@H](NC(=O)c2n[nH]c(Cc3ccccc3)n2)COc2ccc(-c3ccc(O)cc3)cc21 | 0.0299 | > 100 |  |
| CN1C(=O)[C@@H](NC(=O)c2n[nH]c(Cc3ccccc3)n2)COc2ccc(-c3ccccc3-c3ccccc3)cc21 | > 0.1 | > 100 |  |
| Cc1ccccc1-c1ccc2c(c1)N(C)C(=O)[C@@H](NC(=O)c1n[nH]c(Cc3ccccc3)n1)CO2 | 0.0827 | > 100 |  |
| CN1C(=O)[C@@H](NC(=O)c2n[nH]c(Cc3ccccc3)n2)COc2ccc(-c3ccco3)cc21 | 0.0038 | > 100 |  |
| CN1C(=O)[C@@H](NC(=O)c2n[nH]c(Cc3ccccc3)n2)COc2ccc(-c3ccccc3O)cc21 | 0.06 | > 100 |  |
| CN1C(=O)[C@@H](NC(=O)c2n[nH]c(Cc3ccccc3)n2)COc2ccc(-c3ccc(C#N)cc3)cc21 | 0.0017 | > 100 | Activity (L-292): Dose-Dependent Effect; survival at 2.5 mg/kg (Mus musculus [4]): 66%; survival at 5 mg/kg (Mus musculus [5]): 91%; inhibition [6]: Dose-Dependent Effect; inhibition [7]: Dose-Dependent Effect; Activity (HT-29 [8]): inactive; Activity (Mus musculus [9]): Active; Activity (HT-29 [10]): Dose-Dependent Effect; inhibition [11]: Active; inhibition [12]: 100%; Activity (HT-29 [13]): Dose-Dependent Effect; survival at 10 mg/kg (Mus musculus [14]): 100%; Activity (Mus musculus [15]): Active; Activity (HT-29 [16]): inactive; inhibition [17]: 100%; inhibition [18]: 100%; Activity (Mus musculus [19]): Active; inhibition [20]: Dose-Dependent Effect |
| COc1cccc(-c2ccc3c(c2)N(C)C(=O)[C@@H](NC(=O)c2n[nH]c(Cc4ccccc4)n2)CO3)c1 | 0.003 | > 100 |  |
| CN1C(=O)[C@@H](NC(=O)c2n[nH]c(Cc3ccccc3)n2)COc2ccc(-c3ccc(Cl)cc3)cc21 | 0.0125 | > 100 |  |
| CN1C(=O)[C@@H](NC(=O)c2n[nH]c(Cc3ccccc3)n2)COc2ccc(-c3ccncc3)cc21 | 0.0033 | > 100 |  |
| Cc1ccc(-c2ccc3c(c2)N(C)C(=O)[C@@H](NC(=O)c2n[nH]c(Cc4ccccc4)n2)CO3)cc1 | 0.0109 | > 100 |  |
| Cc1cccc(C)c1-c1ccc2c(c1)N(C)C(=O)[C@@H](NC(=O)c1n[nH]c(Cc3ccccc3)n1)CO2 | > 0.1 | > 100 |  |
| Cc1cccc(-c2ccc3c(c2)N(C)C(=O)[C@@H](NC(=O)c2n[nH]c(Cc4ccccc4)n2)CO3)c1 | 0.0141 | > 100 |  |
| CN1C(=O)[C@@H](NC(=O)c2n[nH]c(Cc3ccccc3)n2)COc2ccc(-c3ccccc3)cc21 | 0.0083 | > 100 |  |
| CN1C(=O)[C@@H](NC(=O)c2n[nH]c(Cc3ccccc3)n2)COc2ccc(-c3cccc(-c4ccccc4)c3)cc21 | 0.0273 | > 100 |  |

Reference: ChEMBL document CHEMBL5523692, “Discovery of novel biaryl benzoxazepinones as dual-mode receptor-interacting protein kinase-1 (RIPK1) inhibitors” (Bioorg Med Chem, 2024)
